Results published in patent US20150197492A1, “NOVEL INDENO[1,2-c]QUINOLIN-11-ONE DERIVATIVES, PREPARATION METHOD AND APPLICATION THEREOF” (National Defense Medical Center, priority 2014, published 2015).

What was measured:
Format in all cases: cell-based
human PC-3 cells = experiment: Sulforhodamine B (SRB) assay, cytotoxicity against PC-3 cells; settings: SRB assay, PC-3 cells
Experimental: Add 5% Fetal Bovine Serum (FBS) to 96-well plate and fix the cells with 10% TCA after 24 hours of incubation and add the compound (T0). Add DMSO and culture for another 48 hours and the cells are fixed in 0.4% (W/V), 10% TCA and SRB, and […]. Excess SRB is washed off by 1% acetic acid and cells stained with SRB are dissolved in 10 mmol/L Trizma base. The absorbance is measured at 515 nm. The treatment time is 0 (T0), control growth (C) and the increase of the compound (Tx) in the cells are shown below and are used to calculate the increase of the concentration of the compound in percentage. Growth inhibition (GI %) is calculated using the following formula 100−[(TX−T0)/(C−T0)]×100. The 50% growth inhibition concentration (IC50) is used to confirm the concentration of compound and thus results in 50% reduction of the treated cells which control the amount of total protein.
This part of experimental results are SRB assays measuring cytotoxicity of the 26 synthesized compounds against human PC-3 cells and are summarized in Table 1 and 2.

MOLT-4 = experiment: cells; settings: MOLT-4 (Leukemia), 10 μM, 48 hours
HOP-62 = experiment: cells; settings: HOP-62 (Non-Small Cell Lung Cancer), 10 μM, 48 hours
NCI-H460 = experiment: cells; settings: NCI-H460 (Non-Small Cell Lung Cancer), 10 μM, 48 hours
HCT-116 = experiment: cells; settings: HCT-116 (Colon Cancer), 10 μM, 48 hours
HCT-15 = experiment: cells; settings: HCT-15 (Colon Cancer), 10 μM, 48 hours
HT29 = experiment: cells; settings: HT29 (Colon Cancer), 10 μM, 48 hours
KM12 = experiment: cells; settings: KM12 (Colon Cancer), 10 μM, 48 hours
SNB-75 = experiment: cells; settings: SNB-75 (CNS Cancer), 10 μM, 48 hours
MALME-3M = experiment: cells; settings: MALME-3M (Melanoma), 10 μM, 48 hours
SK-MEL-28 = experiment: cells; settings: SK-MEL-28 (Melanoma), 10 μM, 48 hours
OVCAR-3 = experiment: cells; settings: OVCAR-3 (Ovarian Cancer), 10 μM, 48 hours
OVCAR-4 = experiment: cells; settings: OVCAR-4 (Ovarian Cancer), 10 μM, 48 hours
OVCAR-5 = experiment: cells; settings: OVCAR-5 (Ovarian Cancer), 10 μM, 48 hours
OVCAR-8 = experiment: cells; settings: OVCAR-8 (Ovarian Cancer), 10 μM, 48 hours
NCI/ADR-RES = experiment: cells; settings: NCI/ADR-RES (Ovarian Cancer), 10 μM, 48 hours
SK-OV-3 = experiment: cells; settings: SK-OV-3 (Ovarian Cancer), 10 μM, 48 hours
RXF 393 = experiment: cells; settings: RXF 393 (Renal Cancer), 10 μM, 48 hours
SN12C = experiment: cells; settings: SN12C (Renal Cancer), 10 μM, 48 hours
UO-31 = experiment: cells; settings: UO-31 (Renal Cancer), 10 μM, 48 hours
MCF7 = experiment: cells; settings: MCF7 (Breast Cancer), 10 μM, 48 hours
MDA-MB-231/ATCC = experiment: cells; settings: MDA-MB-231/ATCC (Breast Cancer), 10 μM, 48 hours
HS 578T = experiment: cells; settings: HS 578T (Breast Cancer), 10 μM, 48 hours
T-47D = experiment: cells; settings: T-47D (Breast Cancer), 10 μM, 48 hours
MDA-MB-468 = experiment: cells; settings: MDA-MB-468 (Breast Cancer), 10 μM, 48 hours

SMILES	Toxicity (%) (human PC-3 cells)	GI % (10 μM) (human PC-3 cells) [%]	growth percentage (MOLT-4) [%]	growth percentage (NCI-H460) [%]	growth percentage (HCT-116) [%]	growth percentage (HCT-15) [%]	growth percentage (HT29) [%]	growth percentage (KM12) [%]	growth percentage (SNB-75) [%]	growth percentage (MALME-3M) [%]	growth percentage (SK-MEL-28) [%]	growth percentage (OVCAR-3) [%]	growth percentage (OVCAR-4) [%]	growth percentage (OVCAR-5) [%]	growth percentage (OVCAR-8) [%]	growth percentage (NCI/ADR-RES) [%]	growth percentage (SK-OV-3) [%]	growth percentage (RXF 393) [%]	growth percentage (SN12C) [%]	growth percentage (UO-31) [%]	further results
CNc1nc2ccccc2c2c1-c1ccc(Cl)cc1C2=O [SJ-1, 9-Chloro-6-(methylamino)-11H-indeno[1,2-c]quinolin-11-one]	52.8	100	93.26	84.38	88.31	66.20	99.44	66.82	79.70	114.83	114.89	84.91	72.83	81.54	94.33	92.22	92.62	97.15	94.82	56.91	growth percentage (HOP-62): 87.10%; growth percentage (MCF7): 5.24%; growth percentage (MDA-MB-231/ATCC): 83.87%; growth percentage (HS 578T): 85.28%; growth percentage (T-47D): 23.53%; growth percentage (MDA-MB-468): -31.61%
CC1CCN(c2nc3ccccc3c3c2-c2ccc(Cl)cc2C3=O)CC1 [SJ-6, 9-Chloro-6-(4-methylpiperidin-1-yl)-11H-indeno[1,2-c]quinolin-11-one]	0	89.81	94.41	101.21	102.51	97.78	104.84	94.80	84.42	98.31	105.21	97.59	97.11	104.92	96.38	90.28	99.78	97.51	99.08	76.25	growth percentage (HOP-62): 64.18%; growth percentage (MCF7): 64.65%; growth percentage (MDA-MB-231/ATCC): 90.96%; growth percentage (HS 578T): 98.38%; growth percentage (T-47D): 67.68%; growth percentage (MDA-MB-468): 97.12%
O=C1c2cc(Cl)ccc2-c2c(N3CCN(c4ccccc4)CC3)nc3ccccc3c21 [SJ-16, 9-Chloro-6-(4-phenylpiperazin-1-yl)-11H-indeno[1,2-c]quinolin-11-one]	0	65.91	98.13	97.04	78.18	80.71	82.40	98.34	33.20	100.05	104.82	98.07	90.32	88.56	75.82	97.88	78.58	72.95	87.90	65.02	growth percentage (MCF7): 53.31%; growth percentage (MDA-MB-231/ATCC): 73.80%; growth percentage (T-47D): 75.93%; growth percentage (MDA-MB-468): 95.37%
